Tests used:
[1] = target: Human recombinant DHX9 protein (Homo sapiens (Human), UniProt Q08211); assay: DHX9 ATPase assay (ADP-Glo); format: biochemical; conditions: for IC50: read-out: DHX9 Biochemical Inflection Point
[2] = tested on: circBRIP1 in HCT116 cells; assay: DHX9 circBRIP1 cellular target engagement SYBR Green assay; format: cell-based
[3] = tested on: circBRIP1 in HCT116 cells; assay: DHX9 circBRIP1 cellular target engagement TaqMan multiplex assay; format: cell-based; conditions: read-out: DHX9 Cellular Target Engagement
[4] = Homo sapiens, HCT-116, Taqman assay (*)
[5] = Homo sapiens, HCT-116, SyBr assay (^+), read-out: DHX9 Cellular Target Engagement
[6] = Homo sapiens, HCT-116, values marked +, read-out: DHX9 Cellular Target Engagement EC50

Human recombinant DHX9 protein, sequence (Q08211 whole entry): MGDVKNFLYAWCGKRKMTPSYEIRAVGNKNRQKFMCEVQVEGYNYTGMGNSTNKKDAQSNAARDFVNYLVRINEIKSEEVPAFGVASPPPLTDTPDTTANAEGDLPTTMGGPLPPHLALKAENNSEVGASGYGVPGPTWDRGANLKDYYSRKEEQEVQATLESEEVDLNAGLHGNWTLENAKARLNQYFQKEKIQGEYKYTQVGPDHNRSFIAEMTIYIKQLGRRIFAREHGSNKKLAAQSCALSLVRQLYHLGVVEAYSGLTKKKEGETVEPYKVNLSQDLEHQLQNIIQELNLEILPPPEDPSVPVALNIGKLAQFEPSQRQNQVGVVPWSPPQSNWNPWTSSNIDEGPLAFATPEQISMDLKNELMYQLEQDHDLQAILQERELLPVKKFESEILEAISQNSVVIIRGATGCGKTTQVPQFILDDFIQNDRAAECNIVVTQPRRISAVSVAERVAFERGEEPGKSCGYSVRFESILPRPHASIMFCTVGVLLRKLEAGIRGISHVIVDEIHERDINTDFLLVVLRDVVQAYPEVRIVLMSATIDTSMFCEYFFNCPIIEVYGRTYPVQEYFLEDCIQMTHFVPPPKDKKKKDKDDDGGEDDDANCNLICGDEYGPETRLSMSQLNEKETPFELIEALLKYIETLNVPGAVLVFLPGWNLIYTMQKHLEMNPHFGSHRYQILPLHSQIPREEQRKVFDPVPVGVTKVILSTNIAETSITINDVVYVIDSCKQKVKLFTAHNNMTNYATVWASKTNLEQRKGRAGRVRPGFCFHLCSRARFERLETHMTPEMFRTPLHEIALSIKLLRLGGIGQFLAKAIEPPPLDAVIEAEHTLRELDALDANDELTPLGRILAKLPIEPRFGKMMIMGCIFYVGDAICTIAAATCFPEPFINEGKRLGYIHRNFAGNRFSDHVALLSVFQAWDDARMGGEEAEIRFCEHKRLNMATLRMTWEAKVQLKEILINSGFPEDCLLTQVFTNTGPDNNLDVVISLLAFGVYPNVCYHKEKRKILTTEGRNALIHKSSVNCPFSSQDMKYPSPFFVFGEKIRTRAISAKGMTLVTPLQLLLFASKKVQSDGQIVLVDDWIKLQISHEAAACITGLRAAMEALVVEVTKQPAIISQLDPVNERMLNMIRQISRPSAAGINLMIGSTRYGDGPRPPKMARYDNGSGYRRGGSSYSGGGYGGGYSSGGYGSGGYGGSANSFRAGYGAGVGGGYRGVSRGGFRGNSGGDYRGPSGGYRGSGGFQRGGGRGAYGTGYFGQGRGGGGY

| SMILES | DHX9 Biochemical Max Inhibition [1] | IC50 [1] | further results |
| --- | --- | --- | --- |
| CS(=O)(=O)Nc1cc(Cl)cc(NC(=O)c2cnn([C@@H]3CCCC[C@@H]3O)c2)c1 (relative stereo) [Example 153, N-(3-chloro-5-(methylsulfonamido)phenyl)-1-(2-cis-hydroxycyclohexyl)-1H-pyrazole-4-carboxamide] | 59.7% | 256 nM | EC50 ([2]; values marked +, read-out: DHX9 Cellular Target Engagement EC50): 6110 nM |
| CS(=O)(=O)Nc1cc(F)cc(NC(=O)c2cnn(-c3ccccc3OCc3ccccc3)c2)c1 [Example 430] | 74.9 | 142 nM | EC50 [2, 5]: 1170 nM |
| CS(=O)(=O)Nc1cc(Cl)cc(NC(=O)c2cnn(-c3c(F)cc(F)cc3OCc3cnco3)c2)c1 [Example 429] | 59.6 | 255 nM | EC50 [2, 5]: 1180 nM |
| CCc1sc(C(=O)Nc2cc(Cl)cc(NS(C)(=O)=O)c2)cc1-c1ccccn1 [Example 232] | 77.5% | 20.2 nM | EC50 [2, 6]: 61 nM |
| CS(=O)(=O)Nc1cc(Cl)cc(NC(=O)c2cnn(-c3ncccc3OCc3cccc(Br)c3)c2)c1 [Example 231] | 66.3% | 49.1 nM | EC50 [2, 6]: 203 nM |
| Cc1sc(C(=O)Nc2cc(Br)cc(NS(C)(=O)=O)c2)cc1-c1ccccc1O [Example 20] | 62.5% | 57.2 nM | – |
| CS(=O)(=O)Nc1cc(Cl)cc(NC(=O)c2cccc3ccoc23)c1 [Example 135] | 44.6% | 1070 nM | – |
| Cc1cc(C(=O)Nc2cc(Cl)cc(NS(C)(=O)=O)c2)cn1-c1ncc(C(F)(F)F)cn1 [Example 426] | 74.7 | 58.5 nM | – |
| CS(=O)(=O)Nc1cc(Cl)cc(NC(=O)c2cnn(-c3ncccc3OCc3cn[nH]c3)c2)c1 [Example 206] | 74.9% | 16.8 nM | – |
| CS(=O)(=O)Nc1cc(Cl)cc(NC(=O)c2cc(-c3ncc(F)cn3)cs2)c1 [Example 338] | 78% | 15.7 nM | – |
| CS(=O)(=O)Nc1cc(Cl)cc(NC(=O)c2cnn(-c3ccccc3COc3cncc(F)c3)c2)c1 [Example 428] | 68.9 | 70.8 nM | – |
| CS(=O)(=O)Nc1cc(Cl)cc(NC(=O)c2cnn(-c3ncccc3OCc3ncc[nH]3)c2)c1 [Example 252] | 72.1% | 48.9 nM | – |
| CS(=O)(=O)Nc1cc(Cl)cc(NC(=O)c2cnn(-c3ccccc3OCc3cccc(F)c3)c2)c1 [Example 210] | 71.3% | 3.6 nM | – |
| Cc1cc(C(=O)Nc2cc(Cl)cc(NS(C)(=O)=O)c2)cn1-c1ccc(N2CCN(C(=O)N(C)C)CC2)cn1 [Example 284] | 79.6% | 4.1 nM | – |
| CS(=O)(=O)Nc1cc(Br)cc(NC(=O)c2cnn(-c3ccccc3C(O)C(F)(F)F)c2)c1 (stereo not drawn) [Example 103, N-(3-bromo-5-(methylsulfonamido)phenyl)-1-(2-(2,2,2-trifluoro-1-hydroxyethyl)phenyl)-1H-pyrazole-4-carboxamide] | 49.5% | 452 nM | – |
| CS(=O)(=O)Nc1cc(Cl)cc(NC(=O)c2nc(-c3ccccc3)c[nH]2)c1 [Example 9] | 44.5% | 390 nM | – |
| CCS(=O)(=O)Nc1cc(Cl)cc(NC(=O)c2cc(-c3ccc(F)cn3)c(C)s2)c1 [Example 346] | 73% | 25.7 nM | – |
| CS(=O)(=O)Nc1cc(Cl)cc(NC(=O)c2cnn(C3CC4(CNC4)C3)c2)c1 [Example 146] | 71.9% | 30.4 nM | – |
| CC(C)c1sc(C(=O)Nc2cc(Cl)cc(NS(C)(=O)=O)c2)cc1-c1ccccn1 [Example 233] | 80.3% | 45.5 nM | – |
| CS(=O)(=O)Nc1cc(Br)cc(NC(=O)c2cnn(-c3ccccc3C=O)c2)c1 [Example 58] | 44.4% | 84.9 nM | – |
| CN1CCN(c2cnc(-n3cc(C(=O)Nc4cc(Cl)cc(NS(C)(=O)=O)c4)cn3)nc2)CC1=O [Example 183] | 67.1% | 20.1 nM | – |
| Cc1cc(C(=O)Nc2cc(Cl)cc(NS(C)(=O)=O)c2)cn1C1CCCC1 [Example 282] | 72.4% | 96.4 nM | – |
| CC1(C)CC(n2cc(C(=O)Nc3cc(Cl)cc(NS(C)(=O)=O)c3)cn2)CCN1 (stereo not drawn) [Example 315] | 66.9% | 75.3 nM | – |
| CS(=O)(=O)Nc1cc(Br)cc(NC(=O)c2cnn(-c3ccc(C#N)cn3)c2)c1 [Example 41] | 40.3% | 47.4 nM | – |
| CS(=O)(=O)Nc1cc(Cl)cc(NC(=O)c2cc(-c3ncccc3OCc3cnco3)cs2)c1 [Example 215] | 75.4% | 4 nM | – |
| CC1CN(c2ccc(-n3cc(C(=O)Nc4cc(Cl)cc(NS(C)(=O)=O)c4)cn3)nc2)CCO1 (stereo not drawn) [Example 92] | 61.1% | 22.1 nM | – |
| Cc1cc(C(=O)Nc2cc(Cl)cc(NS(C)(=O)=O)c2)cn1-c1ncc(N2CCC2)cn1 [Example 398] | 65.9 | 8.8 nM | – |
| CS(=O)(=O)Nc1cc(Cl)cc(NC(=O)c2cc(-c3ncccc3Oc3cccnc3)cs2)c1 [Example 239] | 67.7% | 8 nM | – |

Now from value to compound, other results behind:

| DHX9 Biochemical Max Inhibition [1] | IC50 [1] | SMILES | further results |
| --- | --- | --- | --- |
| 62.5 | 158 nM | Cn1cc(C(=O)Nc2cc(Cl)cc(NS(C)(=O)=O)c2)cc1-c1ncc(F)cc1CCc1cncc(F)c1 [Example 728] | EC50 [3, 4]: 1350 nM |
| 58.1 | 537 nM | CC(Oc1cccnc1-c1cc(C(=O)Nc2cc(Cl)cc(NS(C)(=O)=O)c2)cn1C)c1cc(F)cc(C(F)(F)F)c1 (single isomer, unassigned) [Example 628, N-(3-chloro-5-methanesulfonamidophenyl)-5-{3-[1-[3-fluoro-5-(trifluoromethyl)phenyl]ethoxy]pyridin-2-yl}-1-methyl-1H-pyrrole-3-carboxamide] | EC50 ([3]; Taqman assay (*)): 1080 nM |
| 74.8 | 28.9 nM | CC(Oc1cccnc1-c1cc(C(=O)Nc2cc(Cl)cc(NS(C)(=O)=O)c2)cn1C)c1cc(F)cc(C(F)(F)F)c1 (single isomer, unassigned) [Example 629, N-(3-chloro-5-methanesulfonamidophenyl)-5-{3-[1-[3-fluoro-5-(trifluoromethyl)phenyl]ethoxy]pyridin-2-yl}-1-methyl-1H-pyrrole-3-carboxamide] | EC50 ([3]; Taqman assay (*)): 112 nM |
| 71.8 | 3.5 nM | Cn1cc(C(=O)Nc2cc(Cl)cc(NS(C)(=O)=O)c2)cc1-c1ncc(N2CCC2)cn1 [Example 521] | – |
| 63.3 | 43.3 nM | Cn1cc(C(=O)Nc2cc(Cl)cc(NS(C)(=O)=O)c2)cc1-c1ncc(N2CCC(F)(F)C2)cc1F [Example 525] | – |
| 83.2 | 7.2 nM | Cc1sc(C(=O)Nc2cc(Cl)cc(NS(C)(=O)=O)c2)cc1-c1ccc(N2CC(F)(F)C2)cn1 [Example 533] | – |
| 57.7 | 204 nM | Cn1cc(C(=O)Nc2cc(Cl)cc(NS(C)(=O)=O)c2)cc1-c1ncc(N2CC3C(C2)C3(C)C)cc1F (stereo not drawn) [Example 516] | EC50 [3, 4]: 220 nM |
| 61.7 | 17.9 nM | CS(=O)(=O)Nc1cc(Cl)cc(NC(=O)c2cc(-c3ncc(N4CC(F)(F)C4)cn3)cs2)c1 [Example 486] | – |
| 55.3 | 9030 nM | Cn1cc(C(=O)Nc2cc(Cl)cc(NS(C)(=O)=O)c2)cc1-c1ccccc1/C=C/c1cncc(F)c1 [Example 727] | – |
| 91.5 | 24.9 nM | Cn1cc(C(=O)Nc2cc(Cl)cc(NS(C)(=O)=O)c2)cc1-c1ncc(Cl)cn1 [Example 577] | – |
| 69.5 | 336 nM | CCS(=O)(=O)Nc1cc(Cl)cc(NC(=O)c2cc(-c3ncc(F)cn3)c(C3CC3)s2)c1 [Example 449] | – |
| 59.7 | 7.7 nM | CN1CC[C@H](Oc2cnc(-c3cc(C(=O)Nc4cc(Cl)cc(NS(C)(=O)=O)c4)cn3C)c(F)c2)C1 [Example 639, N-(3-chloro-5-methanesulfonamidophenyl)-5-(3-fluoro-5-{[(3S)-1-methylpyrrolidin-3-yl]oxy}pyridin-2-yl)-1-methylpyrrole-3-carboxamide] | – |
| 75.4 | 12.1 nM | CN1C(=O)N(c2csc(C(=O)Nc3cc(Cl)cc(NS(C)(=O)=O)c3)c2)C(=O)C1(C)C [Example 432] | – |
| 68.1 | 199 nM | CN(C)C(=O)c1cccc(OCc2cccc(F)c2)c1-n1cc(C(=O)Nc2cc(Cl)cc(NS(C)(=O)=O)c2)cn1 [Example 717] | – |
| 66.7 | 1750 nM | CS(=O)(=O)Nc1cc(Cl)cc(NC(=O)c2cc(-c3ncc(F)cn3)c(C3CC3)s2)c1 [Example 448] | – |
| 75.1 | 6.8 nM | Cc1sc(C(=O)Nc2cc(Cl)cc(NS(C)(=O)=O)c2)cc1-c1ncc(OC(C)CO)cn1 (stereo not drawn) [Example 677] | – |
| 88.1 | 17.5 nM | Cn1cc(C(=O)Nc2cc(Cl)cc(NS(C)(=O)=O)c2)cc1-c1ncc(F)cc1OCc1cnnn1C [Example 726] | – |
| 72.9 | 39.1 nM | Cc1cc(C(=O)Nc2cc(Cl)cc(NS(C)(=O)=O)c2)cn1-c1ncc(F)cc1F [Example 444] | – |
| 67.4 | 146 nM | Cc1sc(C(=O)Nc2cc(Cl)cc(NS(C)(=O)=O)c2)cc1-c1ncc(N2CCC3(C2)CC3(F)F)cc1F (stereo not drawn) [Example 480] | – |
| 64.7 | 74.2 nM | Cc1cc(F)cnc1-c1cc(C(=O)Nc2cc(Cl)cc(NS(C)(=O)=O)c2)cn1C [Example 545] | – |
